From PubChem BioAssay AID248 (DTP/NCI, 2004)
Values joined by “and” are separate entries in the source; they are usually repeats but may differ in a detail not shown here. Equal values may be shown once. Inconclusive results and toxic doses are left out.

System: L1210 leukemia ip in BDF1 mice, survival T/C
Assay: NCI In Vivo Anticancer Drug Screen. Data for tumor model L1210 Leukemia (intraperitoneal) in B6D2F1 (BDF1) mice
Details: endpoint: mean survival time, higher = longer survival
Procedure: The antitumor activity of compounds was measured in mice bearing transplantable tumors. Survival or tumor size were measured and the results are expressed as the measurement made in the treated group (T) divided by the measurement made in the vehicle treated control group (C). The tumor model used in this assay is L1210 Leukemia (intraperitoneal) in B6D2F1 (BDF1) mice

[1] = dose: 100.0 mg/kg/injection, schedule: Q01DX009 (ip), vehicle: Klucel (hydroxypropylcellulose) (HPC)
[2] = dose: 200.0 mg/kg/injection, schedule: Q01DX009 (ip), vehicle: Klucel (hydroxypropylcellulose) (HPC)
[3] = dose: 200.0 mg/kg/injection, schedule: Q04DX003 (ip), vehicle: saline with Tween-80
[4] = dose: 400.0 mg/kg/injection, schedule: Q04DX003 (ip), vehicle: saline with Tween-80
[5] = dose: 100.0 mg/kg/injection, schedule: Q04DX003 (ip), vehicle: saline with Tween-80
[6] = dose: 400.0 mg/kg/injection, schedule: Q01DX001 (ip), vehicle: saline with Tween-80

O=C1c2ccccc2C(=O)C2C1C(c1ccccc1)N(c1ccccc1)C2c1ccccc1 (stereo not drawn)
T/C (dose: 50.0 mg/kg/injection, schedule: Q01DX001 (ip), vehicle: saline): 94 % of control | T/C (dose: 100.0 mg/kg/injection, schedule: Q01DX001 (ip), vehicle: saline): 105 % of control | T/C (dose: 200.0 mg/kg/injection, schedule: Q01DX001 (ip), vehicle: saline): 94 % of control | T/C (dose: 400.0 mg/kg/injection, schedule: Q01DX001 (ip), vehicle: saline): 103 % of control

O=C1OC(=O)C2C3C=CC(C3=C(c3ccccc3)c3ccccc3)C12 (stereo not drawn)
T/C [1]: 92 % of control | T/C (dose: 100.0 mg/kg/injection, schedule: Q01DX009 (ip), vehicle: saline with Tween-80): 97 % of control | T/C (dose: 100.0 mg/kg/injection, schedule: Q04DX003 (ip), vehicle: Klucel (hydroxypropylcellulose) (HPC)): 92 % of control | T/C [2]: 97 % of control | T/C (dose: 200.0 mg/kg/injection, schedule: Q01DX009 (ip), vehicle: saline with Tween-80): 100 % of control | T/C [3]: 90 % of control | T/C (dose: 400.0 mg/kg/injection, schedule: Q04DX003 (ip), vehicle: Klucel (hydroxypropylcellulose) (HPC)): 87 % of control | T/C [4]: 92 % of control

CN=C(NC)c1ccc(NC(=O)/C=C/C(=O)Nc2ccc(C(=NC)NC)cc2)cc1
T/C (dose: 12.5 mg/kg/injection, schedule: Q01DX Z (ip), vehicle: carboxymethylcellulose (CMC)): 97 % of control | T/C (dose: 25.0 mg/kg/injection, schedule: Q01DX Z (ip), vehicle: carboxymethylcellulose (CMC)): 91 % of control | T/C (dose: 50.0 mg/kg/injection, schedule: Q01DX Z (ip), vehicle: carboxymethylcellulose (CMC)): 99 % of control

CN(C)c1ccc(/C=C(\C#N)c2ccc([N+](=O)[O-])cc2)c(Cl)c1
T/C [5]: 91 % of control | T/C [3]: 96 % of control | T/C [4]: 96 % of control

O=C(O)C1C2/C=C/CCCCC21 (stereo not drawn)
T/C (dose: 100.0 mg/kg/injection, schedule: Q04DX002 (ip), vehicle: other): 104 % of control | T/C (dose: 200.0 mg/kg/injection, schedule: Q04DX002 (ip), vehicle: other): 86 % of control | T/C (dose: 400.0 mg/kg/injection, schedule: Q04DX002 (ip), vehicle: other): 93 % of control

CC(C)(NC(=O)N(CCCl)N=O)C(=O)O
T/C (dose: 15.0 mg/kg/injection, schedule: Q01DX001 (ip), vehicle: saline with Tween-80): 103 % of control | T/C (dose: 23.0 mg/kg/injection, schedule: Q01DX001 (ip), vehicle: saline with Tween-80): 115 % of control | T/C (dose: 36.0 mg/kg/injection, schedule: Q01DX001 (ip), vehicle: saline with Tween-80): 119 % of control | T/C (dose: 119.0 mg/kg/injection, schedule: Q01DX001 (ip), vehicle: saline with Tween-80): 227 % of control | T/C (dose: 178.0 mg/kg/injection, schedule: Q01DX001 (ip), vehicle: saline with Tween-80): 339 % of control | T/C (dose: 266.0 mg/kg/injection, schedule: Q01DX001 (ip), vehicle: saline with Tween-80): 123 % of control | T/C [6]: 352 % of control

[O-][N+](=C(c1ccccc1)c1ccccc1)c1ccccc1
T/C [5]: 101 % of control | T/C [3]: 93 % of control | T/C [4]: 90 % of control

CCC[CH2][Sn]1([CH2]CCC)[CH]=CCC=[C]1C
T/C (dose: 6.25 mg/kg/injection, schedule: Q01DX009 (ip), vehicle: saline with Tween-80): 93 % of control | T/C (dose: 12.5 mg/kg/injection, schedule: Q01DX009 (ip), vehicle: saline with Tween-80): 93 % of control | T/C (dose: 25.0 mg/kg/injection, schedule: Q01DX009 (ip), vehicle: saline with Tween-80): 101 % of control and 89 % of control

O=C(O)c1cc(Cl)cc(I)c1Br
T/C (dose: 75.0 mg/kg/injection, schedule: Q04DX002 (ip), vehicle: Klucel (hydroxypropylcellulose) (HPC)): 100 % of control | T/C (dose: 100.0 mg/kg/injection, schedule: Q04DX002 (ip), vehicle: Klucel (hydroxypropylcellulose) (HPC)): 94 % of control | T/C (dose: 150.0 mg/kg/injection, schedule: Q04DX002 (ip), vehicle: Klucel (hydroxypropylcellulose) (HPC)): 96 % of control | T/C (dose: 200.0 mg/kg/injection, schedule: Q04DX002 (ip), vehicle: Klucel (hydroxypropylcellulose) (HPC)): 105 % of control | T/C (dose: 300.0 mg/kg/injection, schedule: Q04DX002 (ip), vehicle: Klucel (hydroxypropylcellulose) (HPC)): 100 % of control | T/C (dose: 400.0 mg/kg/injection, schedule: Q04DX002 (ip), vehicle: Klucel (hydroxypropylcellulose) (HPC)): 105 % of control

CC(=O)OC(COS(=O)(=O)c1ccc(C)cc1)C1OCOC(COS(=O)(=O)c2ccc(C)cc2)C1OC(C)=O (stereo not drawn)
T/C (dose: 100.0 mg/kg/injection, schedule: Q01DX001 (ip), vehicle: saline with Tween-80): 92 % of control | T/C (dose: 200.0 mg/kg/injection, schedule: Q01DX001 (ip), vehicle: saline with Tween-80): 93 % of control | T/C [6]: 95 % of control

O=C(NCCCl)Nc1ccc(Cl)c(Cl)c1
T/C (dose: 100.0 mg/kg/injection, schedule: Q01DX001 (ip), vehicle: carboxymethylcellulose (CMC)): 101 % of control | T/C [1]: 94 % of control | T/C (dose: 200.0 mg/kg/injection, schedule: Q01DX001 (ip), vehicle: carboxymethylcellulose (CMC)): 95 % of control | T/C [2]: 98 % of control | T/C (dose: 400.0 mg/kg/injection, schedule: Q01DX001 (ip), vehicle: carboxymethylcellulose (CMC)): 106 % of control
